Data as given in ChEMBL document CHEMBL1159164, “Inactivation of serine protease, -chymotrypsin by fluorinated phenylalanine analogues” (Bioorg Med Chem Lett, 1996).

Key:
[1] = molecular target: T1, Chymotrypsinogen B (Homo sapiens, UniProt P17538); assay: Reversible inhibitory activity toward alpha-chymotrypsin (5 nM concentration) at a pH of 7.8 by progress curve method.; no inactivation observed.
[2] = molecular target: T1, Chymotrypsinogen B; assay: Irreversible inhibitory activity toward alpha-chymotrypsin (1.6 uM concentration) at a pH of 7.8 by incubation method.
[3] = molecular target: T1, Chymotrypsinogen B; assay: Time dependent loss of inhibitory activity toward alpha-chymotrypsin (1.6 uM concentration) at a pH of 7.8 by incubation method; no inactivation observed.
[4] = molecular target: T1, Chymotrypsinogen B
[5] = molecular target: T1, Chymotrypsinogen B; assay: Irreversible inhibitory activity toward alpha-chymotrypsin (1.6 uM concentration) at a pH of 7.8 by incubation method. reversible competitive inactivation
[6] = molecular target: T1, Chymotrypsinogen B; assay: Reversible inhibitory activity toward alpha-chymotrypsin (5 nM concentration) at a pH of 7.8 by progress curve method.
[7] = molecular target: T1, Chymotrypsinogen B; assay: Reversible inhibitory activity toward alpha-chymotrypsin (5 nM concentration) at a pH of 7.8 by progress curve method; no inactivation observed.
[8] = molecular target: T1, Chymotrypsinogen B; remark: listed apart in the source

T1 sequence (P17538 34-164 limits assumed, other chains not shown): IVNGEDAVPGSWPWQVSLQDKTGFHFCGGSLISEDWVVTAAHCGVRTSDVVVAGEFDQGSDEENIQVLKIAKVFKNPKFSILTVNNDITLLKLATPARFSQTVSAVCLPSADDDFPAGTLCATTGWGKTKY
T1 sequence (P17538 167-263 limits assumed, other chains not shown): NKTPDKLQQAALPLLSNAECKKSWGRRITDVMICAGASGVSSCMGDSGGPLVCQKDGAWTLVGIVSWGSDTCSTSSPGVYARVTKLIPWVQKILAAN

SMILES	K obs / 1 [3]	[I] [5] [mM]	Ki [6] [mM]	further results
CC(=O)N[C@@H](Cc1ccccc1)C(C)(F)F	No inactivation	–	–	Ki [1]: No inactivation; [I] [2]: 4.85 mM
COC(=O)C(F)(F)[C@H](Cc1ccccc1)NC(C)=O	–	6.86	0.034	K obs / 1 [4]: No inactivation
COC(=O)C(F)[C@H](Cc1ccccc1)NC(C)=O (stereo in doubt; syn) [listing 1 of 2 here]	–	–	19.1	–
COC(=O)C(F)[C@H](Cc1ccccc1)NC(C)=O (stereo in doubt; syn) [listing 2 of 2 here]	No inactivation	4.58	–	–
COC(=O)C(F)[C@H](Cc1ccccc1)NC(C)=O (stereo in doubt; anti) [listing 1 of 2 here]	No inactivation	6.25	–	–
C=CC(F)[C@H](Cc1ccccc1)NC(C)=O (some centres not stated)	No inactivation	–	–	[I] [2]: 9.73 mM; Ki [7]: No inactivation
C=CC(F)(F)[C@H](Cc1ccccc1)NC(C)=O	–	–	0.46	[I] [8]: 8.7 mM
COC(=O)C(F)[C@H](Cc1ccccc1)NC(C)=O (stereo in doubt; anti) [listing 2 of 2 here]	–	–	6.44	–
